{"source": "patent US10092002B2", "about": "“Herbicidal composition comprising nicosulfuron or its salt and S -metolachlor or its salt” (ISHIHARA SANGYO KAISHA, LTD., priority 2011, dated 2018)", "format_in_all_cases": "in vivo", "key": {"[1]": {"tested_on": "annual bluegrass (Poa annua L.) having lowered sensitivity to herbicides", "test": "Test Example 8: foliar treatment of annual bluegrass having lowered sensitivity to herbicides, visual growth inhibition rate", "conditions": "foliar treatment at 5 to 6-leaf stage, 14th day after treatment", "source_text": "When the herbicidal activity in a case where two active ingredients are combined, is larger than the simple sum of the respective herbicidal activities of the two active ingredients (the expected activity), it is called a synergistic effect. The activity expected by the combination of two active ingredients can be calculated as follows (Colby S. R., “Weed”, vol. 15, p. 20-22, 1967). E1=α+β−(α×β÷100)\nGrowth inhibition rate (%)=0 (equivalent to the non-treated area) to 100 (complete kill)\nUpland field soil was put into a 1/1,000,000 ha pot, and seeds of annual bluegrass (Poa annua L.) having lowered sensitivity to herbicides were sown. When the annual bluegrass reached 5 to 6-leaf stage, predetermined amounts of ONEHOPE NYUZAI (tradename) and Dual Gold (tradename) were diluted with water (corresponding to 300 L/ha) and applied for foliar treatment by a small sprayer.\nThe growth inhibition rate (%) (measured value) and the growth inhibition rate (%) calculated in the same manner as in Test Example 1 are shown in Table 9."}, "[2]": {"tested_on": "green kyllinga (Kyllinga brevifolia Rottb. var. leiolepis) having lowered sensitivity to herbicides", "test": "Test Example 6: foliar treatment of green kyllinga having lowered sensitivity to herbicides, visual growth inhibition rate", "conditions": "foliar treatment at height 5 to 7 cm, 21st day after treatment", "source_text": "When the herbicidal activity in a case where two active ingredients are combined, is larger than the simple sum of the respective herbicidal activities of the two active ingredients (the expected activity), it is called a synergistic effect. The activity expected by the combination of two active ingredients can be calculated as follows (Colby S. […] E1=α+β-(α×β÷100) On the 22nd day after treatment, the state of growth of the common cocklebur was visually observed to determine the growth inhibition rate in accordance with the following evaluation standard. The growth inhibition rate (%) (measured value) and the growth inhibition rate (%) (calculated value) calculated by the Colby's formula are shown in Table 1. […] Upland field soil was put into a 1/1,000,000 ha pot, and rhizomes of green […] brevifolia Rottb. var. leiolepis) having lowered sensitivity to herbicides were planted. When the height of green […] reached 5 to 7 cm, predetermined amounts of […] Dual Gold (tradename) were diluted with water (corresponding to 300 Uha) and applied for foliar treatment by a small sprayer. On the 21st day after treatment, the state of growth of the green […] visually observed to determine the growth inhibition rate."}, "[3]": {"tested_on": "wild oat (Avena fatua L.)", "test": "Test Example 3: soil treatment, wild oat, visual growth inhibition rate", "conditions": "soil treatment the day after sowing, 14th day after treatment", "source_text": "When the herbicidal activity in a case where two active ingredients are combined, is larger than the simple sum of the respective herbicidal activities of the two active ingredients (the expected activity), it is called a synergistic effect. The activity expected by the combination of two active ingredients can be calculated as follows (Colby S. R., “Weed”, vol. 15, p. 20-22, 1967). […] In a case where three active ingredients are combined, the activity can be similarly calculated as follows. […] On the 22nd day after treatment, the state of growth of the common cocklebur was visually observed to determine the growth inhibition rate in accordance with the following evaluation standard. The growth inhibition rate (%) (measured value) and the growth inhibition rate (%) (calculated value) calculated by the Colby's formula are shown in Table 1. […] On the 14th day after treatment, the state of growth of the wild oat was visually observed to determine the growth inhibition rate."}, "[4]": {"tested_on": "spotted knotweed (Polygonum lapathifolium L.)", "test": "Test Example 7: soil treatment, residual activity, spotted knotweed sown 14 days after treatment", "conditions": "seeds sown on the 14th day after treatment, 21st day after sowing", "source_text": "When the herbicidal activity in a case where two active ingredients are combined, is larger than the simple sum of the respective herbicidal activities of the two active ingredients (the expected activity), it is called a synergistic effect. The activity expected by the combination of two active ingredients can be calculated as follows (Colby S. R., “Weed”, vol. 15, p. 20-22, 1967). E1=α+β-(α×β÷100) On the 22nd day after treatment, the state of growth of the common cocklebur was visually observed to determine the growth inhibition rate in accordance with the following evaluation standard. The growth inhibition rate (%) (measured value) and the growth inhibition rate (%) (calculated value) calculated by the Colby's formula are shown in Table 1. […] Upland field soil was put into a 1/500,000 ha pot, and on the next day, predetermined amounts of […] Dual Gold (tradename) were diluted with water (corresponding to 300 L/ha) and applied for soil treatment by a small sprayer. On the 14th day after treatment, seeds of Japanese bristlegrass (Setaria faberi Herrm) and spotted knotweed, (Polygonum lapathifolium L.) were sown. On the 21st day after sowing, the state of growth of the Japanese bristlegrass and the spotted knotweed was visually observed to determined the growth inhibition rate."}, "[5]": {"tested_on": "common cocklebur (Xanthium strumarium L.)", "test": "Test Example 1: foliar treatment of common cocklebur in pots, visual growth inhibition rate", "conditions": "foliar treatment at 4.3 to 4.8-leaf stage, 22nd day after treatment", "source_text": "When the herbicidal activity in a case where two active ingredients are combined, is larger than the simple sum of the respective herbicidal activities of the two active ingredients (the expected activity), it is called a synergistic effect. The activity expected by the combination of two active ingredients can be calculated as follows (Colby S. R., “Weed”, vol. 15, p. 20-22, 1967). E1=α+β-(α×β÷100) In a case where three active ingredients are combined, the activity can be similarly calculated as follows. […] Upland field soil was put into a 1/1,000,000 ha pot, and seeds of common cocklebur (Xanthium strumarium L.) were sown. […] Dual Gold, manufactured by Syngenta Crop Protection AG), SC agent containing terbuthylazine as an active ingredient (tradename: Click, manufactured by BASF), SC agent containing mesotrione as an active ingredient (tradename: Callisto, manufactured by Syngenta Crop Protection AG) and WG agent containing prosulfuron as an active ingredient (tradename: Peak, manufactured by Syngenta Crop Protection AG) were diluted with water in an amount corresponding to 1,000 Uha, and applied for foliar treatment by a small sprayer. On the 22nd day after treatment, the state of growth of the common cocklebur was visually observed to determine the growth inhibition rate in accordance with the following evaluation standard. The growth inhibition rate (%) (measured value) and the growth inhibition rate (%) (calculated value) calculated by the Colby's formula are shown in Table 1."}}}
{"compound": "COc1cc(OC)nc(NC(=O)NS(=O)(=O)c2ncccc2C(=O)N(C)C)n1", "note": "[Nicosulfuron, 2-(4,6-dimethoxypyrimidin-2-ylcarbamoylsulfamoyl)-N,N-dimethylnicotinamide]", "values": [{"measurement": "inhibition at 100 g/ha", "setting": "[1]; Poa annua, dose 100 g/ha, read-out: Growth inhibition rate (%) of annual bluegrass, Measured value", "value": 87, "unit": "%"}, {"measurement": "inhibition at 30 g/ha", "setting": "[2]; Cyperus brevifolius, dose 30 g/ha, read-out: Growth inhibition rate (%) of green kyllinga, Measured value", "value": 20, "unit": "%"}, {"measurement": "inhibition at 100 g/ha", "setting": "[2]; Cyperus brevifolius, dose 100 g/ha, read-out: Growth inhibition rate (%) of green kyllinga, Measured value", "value": 40, "unit": "%"}, {"measurement": "inhibition at 10 g/ha", "setting": "[3]; Avena fatua, dose 10 g/ha, read-out: Growth inhibition rate (%) of wild oat, Measured value", "value": 10, "unit": "%"}, {"measurement": "inhibition at 100 g/ha", "setting": "[3]; Avena fatua, dose 100 g/ha, read-out: Growth inhibition rate (%) of wild oat, Measured value", "value": 40, "unit": "%"}, {"measurement": "inhibition at 30 g/ha", "setting": "[4]; Persicaria lapathifolia, dose 30 g/ha, read-out: Growth inhibition rate (%) of spotted knotweed, Measured value", "value": 75, "unit": "%"}, {"measurement": "inhibition at 30 g/ha", "setting": "[5]; Xanthium strumarium, dose 30 g/ha, read-out: Growth inhibition rate (%) of common cocklebur, Measured value", "value": 0, "unit": "%"}]}
{"compound": "a mixture of (aRS,1S)-2-chloro-6′-ethyl-N-(2-methoxy-1-methylethyl)aceto-o-toluidide (80 to 100%) and (aRS,1R)-2-chloro-6′-ethyl-N-(2-methoxy-1-methylethyl)aceto-o-toluidide (20 to 0%) [S-metolachlor]", "values": [{"measurement": "Growth inhibition rate (%) of annual bluegrass, Measured value", "setting": "[1]; dose 1000 g/ha", "value": 18, "unit": "%"}, {"measurement": "Growth inhibition rate (%) of annual bluegrass, Measured value", "setting": "[1]; dose 2000 g/ha", "value": 28, "unit": "%"}, {"measurement": "Growth inhibition rate (%) of green kyllinga, Measured value", "setting": "[2]; dose 500 g/ha", "value": 15, "unit": "%"}, {"measurement": "Growth inhibition rate (%) of green kyllinga, Measured value", "setting": "[2]; dose 1000 g/ha", "value": 45, "unit": "%"}, {"measurement": "Growth inhibition rate (%) of wild oat, Measured value", "setting": "[3]; dose 250 g/ha", "value": 15, "unit": "%"}, {"measurement": "Growth inhibition rate (%) of wild oat, Measured value", "setting": "[3]; dose 2000 g/ha", "value": 60, "unit": "%"}, {"measurement": "Growth inhibition rate (%) of spotted knotweed, Measured value", "setting": "[4]; dose 1000 g/ha", "value": 0, "unit": "%"}, {"measurement": "Growth inhibition rate (%) of common cocklebur, Measured value", "setting": "[5]; dose 1000 g/ha", "value": 0, "unit": "%"}]}
